Laboratory results reported in paper PMC3834954, “Design, Synthesis and in Vitro Degradation of a Novel Co-Drug for the Treatment of Psoriasis” (Pharmaceutics, 2013).

Test system: porcine liver esterase (PLE)
Assay: HPLC of naproxen release, initial rates, Lineweaver-Burk
Type: biochemical, Sus scrofa
Conditions: PBS, 5% acetonitrile, 25 °C, 120 IU/mL PLE, 29-91 μM substrate; ester hydrolysis

COc1ccc2cc(C(C)C(=O)Oc3cccc4c3C(=O)c3c(O)cccc3C4)ccc2c1 (stereo not shown) [compound 8, 8-Hydroxy-9-oxo-9,10-dihydroanthracen-1-yl 2-(6-methoxynaphthalen-2-yl)propanoate]
Km: 65.1 ± 0.99 µM
